ChEMBL document CHEMBL3352081, “Wnt/β-Catenin Signaling Pathway Inhibitors: A Promising Cancer Therapy” (ACS Med Chem Lett, 2014)

tested on: HT-29; assay: Inhibition of Wnt pathway in human HT29 cells after 24 hrs by TCF-driven luciferase reporter gene assay; type: cell-based; settings: HT-29, 24 h

Row | Compound | IC50 [nM]
1 | Cc1ccccc1CNC(=O)C1CCN(c2ccnc3nsnc23)CC1 | < 100
2 | c1ccc(N2C[C@@H]3C[C@H]2CN3c2ccnc3nsnc23)cc1 | < 50
3 | c1ccc(N2C[C@@H]3C[C@H]2CN3c2ncnc3nsnc23)nc1 | < 1000

Second part, the molecule after the results:

Row | IC50 [nM] | Compound
4 | < 5000 | O=C(Nc1ccccc1F)C1CCN(c2ccnc3nsnc23)CC1
5 | < 50 | O=C(Nc1ccc(C(F)(F)F)cn1)C1CCN(c2ccnc3nsnc23)CC1
6 | < 500 | O=C(Nc1cc2ccccc2cn1)C1CCN(c2ccnc3nsnc23)CC1
